{
  "source": "patent US11932619B1",
  "about": "“3-(2-(6-Methoxypyridin-3-yl)-4,5-diphenyl-1H-imidazol-1-yl)-N,N-dimethylpropan-1-amine as an anticancer compound” (KING FAISAL UNIVERSITY, priority 2023, dated 2024)",
  "key": {"[1]": {"test_system": "human osteosarcoma cells (MG-63)", "assay": "Assessment of cytotoxicity by SRB assay", "format": "cell-based", "conditions": "MG-63 cells, 0.01 μM to 100 μM for 72 h", "procedure": "(§1) The human prostate cancer cells (PC3) and human osteosarcoma cells (MG-63) were obtained from Nawah Scientific Inc. (Mokatam, Cairo, Egypt) and cultured in DMEM (Dulbecco's modified eagle's medium), Gibco, USA, supplemented with fetal bovine serum (FBS) at a concentration of 10% and 100 U/mL of penicillin and streptomycin (PS). The Cells were incubated at 37° C. in a humidified environment that contained 5% CO2.\n(§2) Cells were seeded in 96-well plates as aliquots of 100 μL cell suspension and incubated in a complete media for 24 h. afterward, cells were treated with 3-(2-(6-Methoxypyridin-3-yl)-4,5-diphenyl-1H-imidazol-1-yl)-N,N-dimethylpropan-1-amine at diverse concentrations ranging from 0.01 μM to 100 μM for 72 h. Then, cells were fixed at 4° C. for one hour with 150 μL of 10% trichloroacetic acid (TCA). After washing the cells five times with distilled water, 70 μL of sulforhodamine (SRB) solution (0.4% w/v) was added and incubated for 10 min at room temperature in a dark place. […] Then, 150 μL of Tris pH 10.5 (10 mM) was added, and the absorbance was measured at 540 nm using a BMG LABTECH®- FLUOstar Omega microplate reader (Ortenberg, Germany). Half maximal inhibitory concentrations (IC50) values were calculated for each experiment using GraphPad Prism 6 software. […]\n(§3) The inhibition was calculated using the following equation: Inhibition %=100-Average Viability"}, "[2]": {"test_system": "human prostate cancer cells (PC3)", "assay": "Assessment of cytotoxicity by SRB assay", "format": "cell-based", "conditions": "0.01 μM to 100 μM for 72 h", "procedure": "as §1, §2, §3"}},
  "data": [
    {"smiles": "COc1ccc(-c2nc(-c3ccccc3)c(-c3ccccc3)n2CCCN(C)C)cn1", "note": "[3-(2-(6-Methoxypyridin-3-yl)-4,5-diphenyl-1H-imidazol-1-yl)-N,N-dimethylpropan-1-amine]", "values": [
      {"measurement": "antiproliferative activities", "setting": "[1]", "result": "excellent antiproliferative activities"},
      {"measurement": "antiproliferative activities", "setting": "[2]", "result": "excellent antiproliferative activities"},
      {"measurement": "melting point", "result": "125 to 127", "unit": "°C"}
    ]}
  ]
}
